US12157729B2, “Solid state forms of Belumosudil and Belumosudil salts” (TEVA PHARMACEUTICALS INTERNATIONAL GMBH, priority 2020, dated 2024)

Legend:
[1] = Polymorphic stability at up to 100% relative humidity at room temperature; type: physicochemical
[2] = Hygroscopicity of the crystalline form; type: physicochemical; conditions: crystalline solid form

Row | time over which the form is polymorphically stable [1] | hygroscopicity [2] | Substance
1 | at least 7 days | non-hygroscopic | Belumosudil Mesylate [Form M1]
2 | at least 7 days | non-hygroscopic | Belumosudil Tosylate [Form T1]
3 | at least 7 days | non-hygroscopic | Belumosudil Besylate [Form BS1]
